These results are taken from patent US7405309B2, “Pyranone derivatives useful for treating cancer” (Centre National de la Recherche Scientifique (CNRS), priority 2004, dated 2008).

Data set [1] concerns HCT-116 cells (colorectal carcinoma). Nature of the data set: Study of cytotoxicity on HCT-116 cells. Format: cell-based. Particulars: Homo sapiens, 96 hours of incubation, 37° C., read-out: concentration which induces the death of 50% of the cells (IC50). The procedure:
(§1) The biological activity of iodomethylene-dimethyl-dihydropyranone (I), as obtained according to Example 1, was studied in vitro on five different cell lines: • KB (epidermoid carcinoma of the nasopharynx) • HCT-116 (colorectal carcinoma) • K562 (myeloid leukemia) • K562-MDR1 (myeloid leukemia; resistance to doxorubicin) • MCF7-MDR1 (mammary adenocarcinoma; resistance to doxorubicin)
(§2) The cells selected for this study were incubated at 37° C. in the presence of iodomethylene-dimethyl-dihydropyranone (I) added to the culture medium at various concentrations. All the experiments carried out made it possible to determine the degree of toxicity of the test compound, its effect on the course of the cell cycle and its capacity to induce cell death by apoptosis.
(§3) The cytotoxicity of iodomethylene-dimethyl-dihydropyranone (I) was evaluated on KB and HCT-116 cells.

The subject of data set [2] is KB cells (epidermoid carcinoma of the nasopharynx). The data set can be described thus: Study of cytotoxicity on KB cells. Format: cell-based. The settings on record: Homo sapiens, 96 hours of incubation, 37° C., read-out: concentration which induces the death of 50% of the cells (IC50). The procedure: as §1, §2, §3
For data set [3], the system named is K562 cells (myeloid leukemia). Nature of the data set: Morphology of treated K562 cells. The settings on record: 10^−7 M, 24 hours. Format: cell-based. The protocol:
as §1, §2
It should also be emphasized that from 24 hours onwards after the treatment with iodomethylene-dimethyl-dihydropyranone (I) at the dose of 10^−7 M, a change is observed in the morphology of the treated cells.

Data set [4] concerns K562 cells (myeloid leukemia). The data set can be described thus: Study of the cell cycle by flow cytometry, K562. Format: cell-based. The settings on record: significant after 24 hours at 10^−7 M. The procedure:
as §1, §2
(§4) This effect is significant after 24 hours of exposure of the cells to iodomethylene-dimethyl-dihydropyranone (I) used at the concentration 10^−7 M (cf. FIG. 4: effect of (I) on the cell cycle of the leukemia cells K562).

In data set [5] the test system is K562-MDR1 cells (myeloid leukemia; resistance to doxorubicin). Nature of the data set: Study of the cell cycle by flow cytometry, K562-MDR1. It counts as cell-based. Particulars: significant after 24 hours at 10^−7 M. The procedure: as §1, §2, §4
In data set [6] the test system is HCT116 cells (colorectal carcinoma). The data set can be described thus: Study of the cell cycle by flow cytometry, HCT116. It counts as cell-based, human. The settings on record: significant after 24 hours at 10^−7 M. The procedure:
as §1, §2, §4
For orientation: A flow cytometer gives signals particle by particle.

Data set [7] deals with MCF7-MDR1 cells (mammary adenocarcinoma; resistance to doxorubicin). The data set can be described thus: Study of the cell cycle by flow cytometry, MCF7-MDR1. It counts as cell-based. Particulars: significant after 24 hours at 10^−7 M. The protocol: as §1, §2, §4
The test system of data set [8] is K562-MDR1 cells (chemoresistant). The data set can be described thus: Study of apoptosis, flow cytometry with annexin V / propidium iodide double labeling. It counts as cell-based. The settings on record: 24 hours, 10^−6 M and 10^−7 M.
Data set [9] can be described thus: Maximum tolerated dose for a single intravenous injection. The settings on record: Swiss Nu/nu (nude), mouse, in vivo, Nude mice, survival and weight monitored up to day 21. The protocol: The iodomethylene-dimethyl-dihydropyranone (I), as obtained according to Example 1, was injected by the intravenous route (iv) to 4-5 week old Nude mice (Swiss Nu/nu) at the following doses: 50 mg/kg, 66.6 mg/kg, 100 mg/kg, 150 mg/kg and 200 mg/kg.

The nature of another data set: in vivo. Particulars: Nude, mouse, iv. The protocol: Having determined the maximum tolerated dose for a single injection, the Nude mice were treated by the intravenous (iv) route with iodomethylene-dimethyl-dihydropyranone (I) injected at three different doses: 50, 70 and 90 mg/kg/injection. Each dose was administered 4 times at 3 day intervals (D0, D3, D6 and D9). The survival of the animals, their weight and clinical signs noted up to day 21 made it possible to establish the value of the maximum tolerated dose for four injections which is at less than 90 mg/kg. The 40, 60 and 80 mg/kg doses were therefore chosen for the evaluation of antitumor activity.

For data set [10], the system named is HCT 116 tumor transplanted under the skin. Nature of the data set: Antitumor activity in Nude mice carrying a transplanted HCT 116 tumor. Format: in vivo. The protocol:
This antitumor activity of the compounds of the invention was studied on transplanted tumors (such as HCT-116) in Nude mice (nu/nu mice). Nude mice are immunodeficient mice having no thymus.
The xenotransplantation of human tumor cells in Nude mice is a model commonly used for the evaluation of the antitumor activity of various molecules.
The iodomethylene-dimethyl-dihydropyranone (I) was injected 4 times at 3 day intervals (D0, D3, D6 and D9). Two groups of control animals were formed. The first group received no injection (control), whereas the animals of the second group received injections of the solution which served to solubilize the iodomethylene-dimethyl-dihydropyranone (I) (vehicle).
The volume of the tumors (mm^3) was measured with a caliper twice per week.

As for `CC1(C)OC(=O)C=C/C1=C\I` [E-5-iodomethylene-6,6-dimethyl-5,6-dihydropyran-2-one], the IC50 in data set [1] is ~300 nM; in data set [2], ~450 nM. In addition, in data set [3], the “change in the morphology of the treated cells” value was “the cells lose their round forms and become fusiform”. Moreover, the “effect on the cell cycle” value in [4], in data set [5], in [6] and in data set [7] was “blocks cell division in all the lines at the G2/M phase” throughout. Moreover, the “induction of apoptosis (positive annexin V/negative PI cells)” value in [8] is on record as “high induction of apoptosis”. For the same molecule, the MTD at 21 day in data set [9] is 100 mg/kg; in “in vivo”, < 90 mg/kg. The “tumor progression (tumor volume growth curves)” value in data set [10] (80 mg/kg/injection iv, D0, D3, D6, D9, from the 2nd injection) is reported as “significantly inhibits the tumor progression”. The “percentage T/C (median tumor volume treated/control ×100)” value in [10] (21 days after the start of the treatments, iv, 4 injections, dose not stated) is listed as 53.5%.
